Results on one compound are retold here after publication PMC5384001 (Scientific Reports, 2017).

For one assay, the target named is T1, GluD2-Lc(Y496F) (Rattus norvegicus, UniProt Q63226, A654T/Y496F).
T1 construct: the function of full-length receptors as well, we introduced them into the GluD2 lurcher mutant (GluD2-Lc); expressed in transfected cells; host or cells: Xenopus laevis oocytes injected with cRNA
T1 sequence (Q63226 24-1007 Y496F/A654T): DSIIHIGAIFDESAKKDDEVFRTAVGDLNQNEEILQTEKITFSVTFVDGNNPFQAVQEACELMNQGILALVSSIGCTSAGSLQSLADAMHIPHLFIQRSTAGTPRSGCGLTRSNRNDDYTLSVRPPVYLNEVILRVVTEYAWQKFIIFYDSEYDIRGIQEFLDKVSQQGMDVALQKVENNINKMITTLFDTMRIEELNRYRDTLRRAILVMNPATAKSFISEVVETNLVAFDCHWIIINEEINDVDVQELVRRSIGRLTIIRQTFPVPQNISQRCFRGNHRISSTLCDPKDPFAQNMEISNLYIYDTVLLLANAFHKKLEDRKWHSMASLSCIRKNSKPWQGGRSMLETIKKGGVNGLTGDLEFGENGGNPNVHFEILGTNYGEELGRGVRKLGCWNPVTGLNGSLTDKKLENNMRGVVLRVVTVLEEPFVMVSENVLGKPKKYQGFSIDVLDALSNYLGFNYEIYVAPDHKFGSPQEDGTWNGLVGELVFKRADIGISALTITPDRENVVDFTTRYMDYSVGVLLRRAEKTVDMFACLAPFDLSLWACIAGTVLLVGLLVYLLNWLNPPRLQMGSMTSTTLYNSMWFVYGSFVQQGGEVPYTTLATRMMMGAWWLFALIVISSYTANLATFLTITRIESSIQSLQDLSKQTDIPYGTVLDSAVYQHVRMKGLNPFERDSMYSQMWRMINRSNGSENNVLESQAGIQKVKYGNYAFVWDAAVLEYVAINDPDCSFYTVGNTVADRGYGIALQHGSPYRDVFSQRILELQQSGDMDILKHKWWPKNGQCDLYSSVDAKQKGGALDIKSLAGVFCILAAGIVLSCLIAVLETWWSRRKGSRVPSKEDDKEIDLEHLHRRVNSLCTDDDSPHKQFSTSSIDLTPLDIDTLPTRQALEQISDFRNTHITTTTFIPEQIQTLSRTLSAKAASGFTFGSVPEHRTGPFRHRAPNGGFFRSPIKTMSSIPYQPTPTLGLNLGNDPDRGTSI
Kind of assay: Two-electrode voltage clamp in Xenopus oocytes, inhibition of spontaneous currents. Particulars: fraction of spontaneous current inhibited by saturating D-serine. In kind it is cell-based. From the text: (§1) All cDNAs for expression in Xenopus oocytes were cloned into the vector pSGEM[30]. Point mutants of GluD2-Lc were constructed by overlap extension PCR with mutagenic oligonucleotide primers. The GluD2-Lc-(H)GluN1 chimera was constructed by transferring the S1- and S2-encoding sequences from GluD2-LBD-(H)GluN1 to GluD2-Lc via overlap extension PCR using tail primers. The S1 and S2 sequences were transferred separately, yielding GluD2-Lc-(HS1)GluN1 and GluD2-Lc-(HS2)GluN1 constructs. GluD2-Lc-(H)GluN1 was then produced from these by another overlap extension PCR. Complementary RNA (cRNA) for injection into oocytes was synthesised from 1 μg of linearised template DNA with the mMESSAGE mMACHINE in vitro transcription kit (Ambion, Austin, TX, USA).
(§2) Oocytes were obtained by surgically removing parts of the ovaries from Xenopus laevis (Nasco, Fort Atkinson, WI, USA) anaesthetised with 1.5 g/L 3-aminobenzoic acid ethylester (Sigma, Taufkirchen, Germany). […] Oocytes were injected with 11 ng cRNA (10 ng of each cRNA for co-expression of GluN1 and GluN2A) using a nanoliter injector (WPI, Sarasota, FL, USA). Four days after cRNA injection, current responses were recorded under voltage clamp at –70 mV with a Turbo Tec-10CD amplifier (npi electronic, Tamm, Germany) controlled by Patchmaster software (HEKA, Lambrecht, Germany). Currents were filtered with a 20 Hz low-pass filter and then digitised with a sampling rate of 50 Hz. Recording electrodes were pulled from borosilicate glass (Hilgenberg, Malsfeld, Germany) with an L/M-3P-A vertical pipette puller (List-Medical), filled with 3 M KCl, and had resistances of 0.5–5 MΩ (voltage electrode) or 0.5–1.5 MΩ (current electrode). Recordings were performed in a 50 μL chamber under constant superfusion with extracellular solution at a flow rate of 3–5 mL/min. […] Finally, Ba-NFR and then NMDGR were applied again to check for reversibility.

For a further assay, the target named is T2, GluD2-Lc-(H)GluN1 (Rattus norvegicus, UniProt Q63226, A654T/A766F/D542Y/D767R/N763E/R768S/S544G/T764L/V761T/V765F/Y543Q).
T2 construct: the function of full-length receptors as well, we introduced them into the GluD2 lurcher mutant (GluD2-Lc); expressed in transfected cells; host or cells: Xenopus laevis oocytes injected with cRNA
T2 sequence (Q63226 24-1007 D542Y/Y543Q/S544G/A654T/V761T/N763E/T764L/V765F/A766F/D767R/R768S): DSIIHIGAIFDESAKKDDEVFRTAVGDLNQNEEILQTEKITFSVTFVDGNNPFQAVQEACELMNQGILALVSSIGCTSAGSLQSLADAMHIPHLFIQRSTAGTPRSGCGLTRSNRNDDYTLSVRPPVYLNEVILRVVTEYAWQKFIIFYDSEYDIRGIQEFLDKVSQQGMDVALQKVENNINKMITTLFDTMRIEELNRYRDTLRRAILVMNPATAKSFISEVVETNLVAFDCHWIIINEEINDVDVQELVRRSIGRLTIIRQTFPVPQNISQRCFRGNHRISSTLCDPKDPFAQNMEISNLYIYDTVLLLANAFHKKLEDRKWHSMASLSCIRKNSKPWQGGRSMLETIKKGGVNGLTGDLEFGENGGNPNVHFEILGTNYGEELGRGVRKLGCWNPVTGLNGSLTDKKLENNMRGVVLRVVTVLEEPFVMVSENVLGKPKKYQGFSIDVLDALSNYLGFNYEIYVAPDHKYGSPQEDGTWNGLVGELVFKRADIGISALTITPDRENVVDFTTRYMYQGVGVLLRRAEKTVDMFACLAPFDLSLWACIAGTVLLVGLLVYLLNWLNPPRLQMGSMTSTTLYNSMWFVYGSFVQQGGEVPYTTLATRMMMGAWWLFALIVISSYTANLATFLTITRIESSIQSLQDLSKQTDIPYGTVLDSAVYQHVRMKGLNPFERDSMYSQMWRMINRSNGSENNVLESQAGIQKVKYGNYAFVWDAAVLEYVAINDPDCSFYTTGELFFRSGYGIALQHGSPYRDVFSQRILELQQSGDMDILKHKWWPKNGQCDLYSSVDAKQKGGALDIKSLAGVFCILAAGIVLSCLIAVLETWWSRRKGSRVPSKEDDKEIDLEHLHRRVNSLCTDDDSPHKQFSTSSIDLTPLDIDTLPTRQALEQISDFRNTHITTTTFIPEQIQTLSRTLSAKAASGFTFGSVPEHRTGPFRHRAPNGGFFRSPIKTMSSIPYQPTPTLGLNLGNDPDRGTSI
The description is as above. The class given is cell-based.
Description: as §1, §2

Where “and” joins values, the source holds several entries; their conditions need not be identical. Equal values may be shown once.

On to `N[C@H](CO)C(=O)O` [D-serine], for which the “D-serine efficacy Mean ± SEM” value at GluD2-Lc(Y496F) is 43.5 ± 2.0%; at GluD2-Lc-(H)GluN1 (fraction of spontaneous current inhibited by saturating D-serine) it was 13% and 12.9 ± 0.8%. For the same compound, the “D-serine concentration of maximum inhibition of spontaneous currents” value at GluD2-Lc-(H)GluN1 (bell-shaped concentration–response curve) is 10 µM. The “maximal, absolute, D-serine-induced steady-state inhibition of spontaneous currents” value on GluD2-Lc-(H)GluN1 (n = 30) is listed as 53 ± 8 nA.
